The target in test [1] is CDK9/Cyclin T1 (Homo sapiens (Human), UniProt P50750). Description: CDK9 enzyme assay (LANCE ULight TR-FRET kinase assay). The test is classed as biochemical. The conditions noted are these: 1000 μM ATP, 100 nM ULight MBP, kinase reaction 1 hour. The procedure, abridged: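 Human CDK9/Cyclin T1 phosphorylating 100 nM ULight-MBP with 1000 μM ATP in HEPES/MgCl2 buffer, 1 h reaction. Stopped with 20 mM EDTA plus 0.5 nM Eu anti-phospho-MBP antibody, incubated 1 h, read by TR-FRET (ex 320 nm, em 615/665 nm).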
CDK9/Cyclin T1, sequence (P50750 whole entry): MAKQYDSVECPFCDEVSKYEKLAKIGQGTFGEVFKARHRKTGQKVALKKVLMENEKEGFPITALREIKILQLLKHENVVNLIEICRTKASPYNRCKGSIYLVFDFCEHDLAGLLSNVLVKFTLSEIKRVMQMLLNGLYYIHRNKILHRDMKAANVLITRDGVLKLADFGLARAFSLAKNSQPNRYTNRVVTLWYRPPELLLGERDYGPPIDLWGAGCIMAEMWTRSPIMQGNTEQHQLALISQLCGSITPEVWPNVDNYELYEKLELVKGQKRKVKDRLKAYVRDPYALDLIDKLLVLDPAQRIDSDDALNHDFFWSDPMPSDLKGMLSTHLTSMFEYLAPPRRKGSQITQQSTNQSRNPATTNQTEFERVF
CDK9/Cyclin T1, sequence (O60563 whole entry partner): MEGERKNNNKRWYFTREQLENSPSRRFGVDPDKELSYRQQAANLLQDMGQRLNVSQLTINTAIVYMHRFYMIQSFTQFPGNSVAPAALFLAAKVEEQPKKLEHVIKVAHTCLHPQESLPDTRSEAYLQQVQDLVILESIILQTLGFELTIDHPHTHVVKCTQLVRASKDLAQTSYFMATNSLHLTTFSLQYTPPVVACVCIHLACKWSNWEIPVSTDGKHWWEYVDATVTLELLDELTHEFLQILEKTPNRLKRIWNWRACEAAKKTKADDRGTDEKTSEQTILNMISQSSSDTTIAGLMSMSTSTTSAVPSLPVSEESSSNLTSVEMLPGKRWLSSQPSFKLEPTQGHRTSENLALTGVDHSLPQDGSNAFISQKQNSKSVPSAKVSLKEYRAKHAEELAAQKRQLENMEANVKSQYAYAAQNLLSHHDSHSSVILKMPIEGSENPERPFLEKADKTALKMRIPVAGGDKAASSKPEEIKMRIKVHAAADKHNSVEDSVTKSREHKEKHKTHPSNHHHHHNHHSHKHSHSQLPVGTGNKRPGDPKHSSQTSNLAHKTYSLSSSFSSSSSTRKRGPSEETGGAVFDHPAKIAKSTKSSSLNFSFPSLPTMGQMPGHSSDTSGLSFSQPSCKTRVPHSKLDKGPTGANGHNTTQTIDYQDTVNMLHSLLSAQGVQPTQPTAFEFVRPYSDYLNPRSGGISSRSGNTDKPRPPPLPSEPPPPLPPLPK
On the technique in general: Time-resolved FRET reads energy transfer from a long-lived donor to a nearby acceptor.

Test [2] has as its system H929 cells. Description: Cell viability assay (Cell TiterGlo). It counts as cell-based. The settings on record: Cell TiterGlo luminescence. The procedure:
The cell viability assay was performed using H929 cells. Cells were seeded in 96-well plates at 10,000 cells/well and, after overnight incubation, treated with compounds in a dose response of 3-fold dilutions from 10 μM to 0.005 μM ([…], 0.1% final DMSO concentration). After 24 hours at 37° C., cell viability was measured using Cell TiterGlo reagent (Promega) with a luminescence reader.

Setting [3] is: Homo sapiens, NCI-H929, 24 hours at 37° C.

Broadly, the IC50 is the midpoint of a concentration-inhibition curve. Read a low IC50 as greater potency in that assay. With `CN(CC(O)CO)C(=O)CN1CC=C(c2[nH]c3ncc(F)c4c3c2CN(C)c2ccc(F)cc2-4)CC1` (stereo not shown) [Example 110, 2-[4-(1,10-difluoro-7-methyl-6,7-dihydro-4H-3,4,7-triazadibenzo[cd,f]azulen-5-yl)-3,6-dihydropyridin-1(2H)-yl]-N-(2,3-dihydroxypropyl)-N-methylacetamide], the values for the IC50 in test [1] and in test [2] (setting [3]) were 45 nM and 14 nM, respectively.
On the same counts, the results for `CN1Cc2c(C3=CCN(CC(=O)O)CC3(C)C)[nH]c3nccc(c23)-c2cc(F)ccc21` [Example 111, [4-(10-fluoro-7-methyl-6,7-dihydro-4H-3,4,7-triazadibenzo[cd,f]azulen-5-yl)-3,3-dimethyl-3,6-dihydropyridin-1(2H)-yl]acetic acid] are 1600 nM and 5500 nM.
On to `CN1Cc2c(C3=CCN(S(C)(=O)=O)CC3(C)C)[nH]c3nccc(c23)-c2cc(F)ccc21` [Example 113, 5-[3,3-dimethyl-1-(methylsulfonyl)-1,2,3,6-tetrahydropyridin-4-yl]-10-fluoro-7-methyl-6,7-dihydro-4H-3,4,7-triazadibenzo[cd,f]azulene], for which the results for the IC50 in test [1] and in test [2] (setting [3]) were 650 nM and 2700 nM, respectively.
On to `CN(C)C(=O)CN1CC=C(c2[nH]c3nccc4c3c2CN(C)c2ccc(F)cc2-4)C(C)(C)C1` [Example 114, 2-[4-(10-fluoro-7-methyl-6,7-dihydro-4H-3,4,7-triazadibenzo[cd,f]azulen-5-yl)-3,3-dimethyl-3,6-dihydropyridin-1(2H)-yl]-N,N-dimethylacetamide], for which the IC50 in test [1] stood at 870 nM; in test [2] (setting [3]) it was 3400 nM.
Taken in the same sequence, the figures for `CN1Cc2c(C3=CCN(CC(=O)N4CCC[C@H]4CO)CC3(C)C)[nH]c3nccc(c23)-c2cc(F)ccc21` [Example 115, 2-[4-(10-fluoro-7-methyl-6,7-dihydro-4H-3,4,7-triazadibenzo[cd,f]azulen-5-yl)-3,3-dimethyl-3,6-dihydropyridin-1(2H)-yl]-1-[(2S)-2-(hydroxymethyl)pyrrolidin-1-yl]ethanone] were 950 nM and 2600 nM.
Taken in the same sequence, the figures for `CN(CCO)C(=O)CN1CC=C(c2[nH]c3nccc4c3c2CN(C)c2ccc(F)cc2-4)C(C)(C)C1` [Example 116, 2-[4-(10-fluoro-7-methyl-6,7-dihydro-4H-3,4,7-triazadibenzo[cd,f]azulen-5-yl)-3,3-dimethyl-3,6-dihydropyridin-1(2H)-yl]-N-(2-hydroxyethyl)-N-methylacetamide] were 890 nM and 1700 nM.
Regarding `CN1Cc2c(C3=CCN(CC(=O)N4CC(O)C4)CC3(C)C)[nH]c3nccc(c23)-c2cc(F)ccc21` [Example 117, 2-[4-(10-fluoro-7-methyl-6,7-dihydro-4H-3,4,7-triazadibenzo[cd,f]azulen-5-yl)-3,3-dimethyl-3,6-dihydropyridin-1(2H)-yl]-1-(3-hydroxyazetidin-1-yl)ethanone], the IC50 in test [1] came to 960 nM; in test [2] (setting [3]), 2400 nM.
Taken in the same sequence, the figures for `CN1Cc2c(C3=CCN(CC(=O)N(C)C4CC(O)C4)CC3(C)C)[nH]c3nccc(c23)-c2cc(F)ccc21` (stereo not shown) [Example 118, 2-[4-(10-fluoro-7-methyl-6,7-dihydro-4H-3,4,7-triazadibenzo[cd,f]azulen-5-yl)-3,3-dimethyl-3,6-dihydropyridin-1(2H)-yl]-N-(3-hydroxycyclobutyl)-N-methylacetamide] were 1200 nM and 2600 nM.
On the same counts, the results for `CN(CC(O)CO)C(=O)CN1CC=C(c2[nH]c3nccc4c3c2CN(C)c2ccc(F)cc2-4)C(C)(C)C1` (stereo not shown) [Example 119, N-(2,3-dihydroxypropyl)-2-[4-(10-fluoro-7-methyl-6,7-dihydro-4H-3,4,7-triazadibenzo[cd,f]azulen-5-yl)-3,3-dimethyl-3,6-dihydropyridin-1(2H)-yl]-N-methylacetamide] are 1300 nM and 2400 nM.
Taken in the same sequence, the figures for `CN1Cc2c(C3=CCCN(CC(=O)N4CCC[C@H]4CO)C3)[nH]c3nccc(c23)-c2cc(F)ccc21` [Example 120, 2-[5-(10-fluoro-7-methyl-6,7-dihydro-4H-3,4,7-triazadibenzo[cd,f]azulen-5-yl)-3,6-dihydropyridin-1(2H)-yl]-1-[(2S)-2-(hydroxymethyl)pyrrolidin-1-yl]ethanone] were 480 nM and 2100 nM.
Take `CN1Cc2c(C3=CCCN(CC(=O)N4CC(O)C4)C3)[nH]c3nccc(c23)-c2cc(F)ccc21` [Example 121, 2-[5-(10-fluoro-7-methyl-6,7-dihydro-4H-3,4,7-triazadibenzo[cd,f]azulen-5-yl)-3,6-dihydropyridin-1(2H)-yl]-1-(3-hydroxyazetidin-1-yl)ethanone]: the IC50 in test [1] turned out to be 160 nM; in test [2] (setting [3]), 1100 nM.
Taken in the same sequence, the figures for `CN1Cc2c(C3=CCCN(CC(=O)N(C)C4CC(O)C4)C3)[nH]c3nccc(c23)-c2cc(F)ccc21` (stereo not shown) [Example 122, 2-[5-(10-fluoro-7-methyl-6,7-dihydro-4H-3,4,7-triazadibenzo[cd,f]azulen-5-yl)-3,6-dihydropyridin-1(2H)-yl]-N-(3-hydroxycyclobutyl)-N-methylacetamide] were 420 nM and 1400 nM.
Taken in the same sequence, the figures for `CN(CC(O)CO)C(=O)CN1CCC=C(c2[nH]c3nccc4c3c2CN(C)c2ccc(F)cc2-4)C1` (stereo not shown) [Example 123, N-(2,3-dihydroxypropyl)-2-[5-(10-fluoro-7-methyl-6,7-dihydro-4H-3,4,7-triazadibenzo[cd,f]azulen-5-yl)-3,6-dihydropyridin-1(2H)-yl]-N-methylacetamide] were 540 nM and 3100 nM.
On the same counts, the results for `CN1Cc2c(C3=CCN([C@H]4CC[C@@H](CC(=O)O)CC4)CC3)[nH]c3nccc(c23)-c2cc(F)ccc21` [Example 124, {cis-4-[4-(10-fluoro-7-methyl-6,7-dihydro-4H-3,4,7-triazadibenzo[cd,f]azulen-5-yl)-3,6-dihydropyridin-1(2H)-yl]cyclohexyl}acetic acid] are 48 nM and 88 nM.
Turning to `CN1Cc2c(C3=C[C@@H]4COC(=O)N4CC3)[nH]c3nccc(c23)-c2cc(F)c(F)cc21` [Example 125, (8aR)-7-(9,10-difluoro-7-methyl-6,7-dihydro-4H-3,4,7-triazadibenzo[cd,f]azulen-5-yl)-1,5,6,8a-tetrahydro[1,3]oxazolo[3,4-a]pyridin-3-one], the results for the IC50 in test [1] and in test [2] (setting [3]) were 54 nM and 300 nM, respectively.
On the same counts, the results for `CN1Cc2c(C3=C[C@H](CO)NCC3)[nH]c3nccc(c23)-c2cc(F)c(F)cc21` [Example 126, [(2R)-4-(9,10-difluoro-7-methyl-6,7-dihydro-4H-3,4,7-triazadibenzo[cd,f]azulen-5-yl)-1,2,5,6-tetrahydropyridin-2-yl]methanol] are 58 nM and 39 nM.
Take `CN1CCc2c(C3=CCNCC3)[nH]c3nccc(c23)-c2cc(F)ccc21` [Example 127, 8-fluoro-5-methyl-2-(1,2,3,6-tetrahydropyridin-4-yl)-1,3,4,5-tetrahydro-1,5,12-triazabenzo[4,5]cycloocta[1,2,3-cd]indene]: the IC50 in test [1] was 26 nM; in test [2] (24 hours at 37° C.), 100 nM.
Taken in the same sequence, the figures for `CN1CCc2c(C3=CCN(S(C)(=O)=O)CC3)[nH]c3nccc(c23)-c2cc(F)ccc21` [Example 128, 8-fluoro-5-methyl-2-[1-(methylsulfonyl)-1,2,3,6-tetrahydropyridin-4-yl]-1,3,4,5-tetrahydro-1,5,12-triazabenzo[4,5]cycloocta[1,2,3-cd]indene] were 78 nM and 150 nM.
For the compound `CN(C)C(=O)CN1CC=C(c2[nH]c3nccc4c3c2CCN(C)c2ccc(F)cc2-4)CC1` [Example 129, 2-[4-(8-fluoro-5-methyl-1,3,4,5-tetrahydro-1,5,12-triazabenzo[4,5]cycloocta[1,2,3-cd]inden-2-yl)-3,6-dihydropyridin-1(2H)-yl]-N,N-dimethylacetamide], the IC50 is 67 nM in test [1] and 130 nM in test [2] (24 hours at 37° C.).
As to `CN1Cc2c(C3=CCN([C@H]4CC[C@H](CC(=O)O)CC4)CC3)[nH]c3nccc(c23)-c2cc(F)ccc21` [Example 130, {trans-4-[4-(10-fluoro-7-methyl-6,7-dihydro-4H-3,4,7-triazadibenzo[cd,f]azulen-5-yl)-3,6-dihydropyridin-1(2H)-yl]cyclohexyl}acetic acid], the IC50 was found to be 64 nM in test [1] and 70 nM in test [2] (setting [3]).
As to `CN1Cc2c(C3=CCN(S(C)(=O)=O)CC3)[nH]c3nccc(c23)-c2cc(F)c(F)cc21` [Example 131, 9,10-difluoro-7-methyl-5-[1-(methylsulfonyl)-1,2,3,6-tetrahydropyridin-4-yl]-6,7-dihydro-4H-3,4,7-triazadibenzo[cd,f]azulene], the IC50 in test [1] was found to be 36 nM; in test [2] (setting [3]), 79 nM.
Take `CN(C)C(=O)CN1CC=C(c2[nH]c3nccc4c3c2CN(C)c2cc(F)c(F)cc2-4)CC1` [Example 132, 2-[4-(9,10-difluoro-7-methyl-6,7-dihydro-4H-3,4,7-triazadibenzo[cd,f]azulen-5-yl)-3,6-dihydropyridin-1(2H)-yl]-N,N-dimethylacetamide]: the values for the IC50 in test [1] and in test [2] (setting [3]) were 40 nM and 14 nM, respectively.
As for `COC(=O)C[C@H]1CC[C@@H](N2CC=C(c3[nH]c4nccc5c4c3CN(C)c3cc(F)c(F)cc3-5)CC2)CC1` [Example 134, methyl{cis-4-[4-(9,10-difluoro-7-methyl-6,7-dihydro-4H-3,4,7-triazadibenzo[cd,f]azulen-5-yl)-3,6-dihydropyridin-1(2H)-yl]cyclohexyl}acetate], the values for the IC50 in test [1] and in test [2] (setting [3]) were 47 nM and 310 nM, respectively.
